The target in assay [1] is T1, Alpha-1D adrenergic receptor (Homo sapiens, UniProt P25100). Note: in other assays of this panel Not Active means under 50% inhibition at 10 µM.
T1 sequence (P25100 whole entry): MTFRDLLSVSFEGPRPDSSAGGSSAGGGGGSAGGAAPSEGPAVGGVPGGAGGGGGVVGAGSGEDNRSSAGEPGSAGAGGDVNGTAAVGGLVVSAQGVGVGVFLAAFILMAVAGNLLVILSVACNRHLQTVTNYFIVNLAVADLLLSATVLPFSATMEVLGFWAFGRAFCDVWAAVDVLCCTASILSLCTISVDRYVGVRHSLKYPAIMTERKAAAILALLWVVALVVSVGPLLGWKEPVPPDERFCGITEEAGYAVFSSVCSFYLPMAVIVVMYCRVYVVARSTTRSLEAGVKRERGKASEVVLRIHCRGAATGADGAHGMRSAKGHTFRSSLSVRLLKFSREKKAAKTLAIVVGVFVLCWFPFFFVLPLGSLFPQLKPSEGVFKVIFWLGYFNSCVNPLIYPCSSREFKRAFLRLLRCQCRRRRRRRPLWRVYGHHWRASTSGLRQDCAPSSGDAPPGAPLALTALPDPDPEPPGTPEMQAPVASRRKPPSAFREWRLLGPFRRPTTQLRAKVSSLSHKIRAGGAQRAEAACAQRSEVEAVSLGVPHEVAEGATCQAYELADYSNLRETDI
The class given is cell membranes, HEK293, Membrane.

The nature of assay [2]: DRUGMATRIX: Glutamate, AMPA radioligand binding (ligand: [3H] AMPA). The class given is cell membranes, Rattus norvegicus, Wistar, Cerebral cortex, Membrane. The conditions noted are these: Not Active = under 50% inhibition at 10 µM.
Assay [3] addresses Substance-P receptor (Homo sapiens, UniProt P25103). The class given is cell membranes, CHO, Membrane. The conditions noted are these: cho.
Assay [4] deals with T2, Receptor-type tyrosine-protein phosphatase C (Homo sapiens, UniProt P08575).
T2 sequence (P08575 whole entry): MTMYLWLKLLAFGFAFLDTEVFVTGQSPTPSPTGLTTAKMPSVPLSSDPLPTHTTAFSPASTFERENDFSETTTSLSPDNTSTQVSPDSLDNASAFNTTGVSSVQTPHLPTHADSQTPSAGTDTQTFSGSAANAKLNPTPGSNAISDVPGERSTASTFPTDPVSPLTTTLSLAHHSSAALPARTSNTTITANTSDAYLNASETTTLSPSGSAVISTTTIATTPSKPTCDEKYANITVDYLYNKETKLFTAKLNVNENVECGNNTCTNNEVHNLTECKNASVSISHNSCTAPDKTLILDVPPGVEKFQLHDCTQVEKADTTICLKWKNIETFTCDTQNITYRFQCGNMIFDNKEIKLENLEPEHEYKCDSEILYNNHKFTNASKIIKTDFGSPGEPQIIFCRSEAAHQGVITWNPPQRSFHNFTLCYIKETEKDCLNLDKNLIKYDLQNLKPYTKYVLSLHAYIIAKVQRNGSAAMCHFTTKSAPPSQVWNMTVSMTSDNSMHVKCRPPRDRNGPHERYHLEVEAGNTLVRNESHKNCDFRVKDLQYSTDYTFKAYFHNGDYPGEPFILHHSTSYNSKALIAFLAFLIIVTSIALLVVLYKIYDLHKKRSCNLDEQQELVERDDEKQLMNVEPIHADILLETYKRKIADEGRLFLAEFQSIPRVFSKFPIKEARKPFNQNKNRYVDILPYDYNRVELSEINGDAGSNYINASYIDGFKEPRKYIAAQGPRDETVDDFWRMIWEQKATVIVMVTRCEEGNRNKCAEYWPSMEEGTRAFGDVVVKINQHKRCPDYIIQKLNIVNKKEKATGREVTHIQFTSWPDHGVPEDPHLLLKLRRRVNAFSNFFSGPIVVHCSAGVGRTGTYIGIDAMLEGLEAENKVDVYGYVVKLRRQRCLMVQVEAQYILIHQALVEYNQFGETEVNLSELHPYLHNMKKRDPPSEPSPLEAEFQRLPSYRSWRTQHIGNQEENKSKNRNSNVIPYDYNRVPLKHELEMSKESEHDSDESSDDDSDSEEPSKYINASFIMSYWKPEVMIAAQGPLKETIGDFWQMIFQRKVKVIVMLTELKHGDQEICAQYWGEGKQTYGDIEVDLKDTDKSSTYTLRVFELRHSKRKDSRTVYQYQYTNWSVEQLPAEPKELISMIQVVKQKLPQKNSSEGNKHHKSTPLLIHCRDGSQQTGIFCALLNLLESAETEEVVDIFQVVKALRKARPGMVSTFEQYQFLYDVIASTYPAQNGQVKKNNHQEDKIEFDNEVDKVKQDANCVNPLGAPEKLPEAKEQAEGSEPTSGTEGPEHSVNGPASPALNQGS
Further details: species or system Escherichia coli.

The target in assay [5] is T3, Calcitonin receptor (Homo sapiens, UniProt P30988). Note: in other assays of this panel Not Active means under 50% inhibition at 10 µM.
T3 sequence (P30988 whole entry): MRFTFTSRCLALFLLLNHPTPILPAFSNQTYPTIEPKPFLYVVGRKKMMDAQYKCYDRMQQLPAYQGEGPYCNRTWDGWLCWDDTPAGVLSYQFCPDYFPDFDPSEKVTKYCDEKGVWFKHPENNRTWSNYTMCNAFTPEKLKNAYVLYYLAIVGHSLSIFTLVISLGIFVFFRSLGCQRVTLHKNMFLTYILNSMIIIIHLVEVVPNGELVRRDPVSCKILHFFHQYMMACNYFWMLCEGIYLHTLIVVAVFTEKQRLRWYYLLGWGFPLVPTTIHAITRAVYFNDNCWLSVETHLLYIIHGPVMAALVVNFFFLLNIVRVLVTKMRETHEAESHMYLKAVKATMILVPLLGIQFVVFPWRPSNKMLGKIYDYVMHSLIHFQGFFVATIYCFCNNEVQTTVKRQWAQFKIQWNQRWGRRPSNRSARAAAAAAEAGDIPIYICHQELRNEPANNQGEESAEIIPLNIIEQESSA
In kind it is cell membranes, Membrane. The note with it: t47d.

In assay [6] the target is Sodium-dependent dopamine transporter (Homo sapiens, UniProt Q01959). The assay can be described thus: DRUGMATRIX: Dopamine Transporter radioligand binding (ligand: [125I] RTI-55). In kind it is cell membranes, CHO-K1, Membrane. The note with it: Not Active = under 50% inhibition at 10 µM; for Ki: read-out: Ki.
Sequence of Sodium-dependent dopamine transporter (Q01959 whole entry): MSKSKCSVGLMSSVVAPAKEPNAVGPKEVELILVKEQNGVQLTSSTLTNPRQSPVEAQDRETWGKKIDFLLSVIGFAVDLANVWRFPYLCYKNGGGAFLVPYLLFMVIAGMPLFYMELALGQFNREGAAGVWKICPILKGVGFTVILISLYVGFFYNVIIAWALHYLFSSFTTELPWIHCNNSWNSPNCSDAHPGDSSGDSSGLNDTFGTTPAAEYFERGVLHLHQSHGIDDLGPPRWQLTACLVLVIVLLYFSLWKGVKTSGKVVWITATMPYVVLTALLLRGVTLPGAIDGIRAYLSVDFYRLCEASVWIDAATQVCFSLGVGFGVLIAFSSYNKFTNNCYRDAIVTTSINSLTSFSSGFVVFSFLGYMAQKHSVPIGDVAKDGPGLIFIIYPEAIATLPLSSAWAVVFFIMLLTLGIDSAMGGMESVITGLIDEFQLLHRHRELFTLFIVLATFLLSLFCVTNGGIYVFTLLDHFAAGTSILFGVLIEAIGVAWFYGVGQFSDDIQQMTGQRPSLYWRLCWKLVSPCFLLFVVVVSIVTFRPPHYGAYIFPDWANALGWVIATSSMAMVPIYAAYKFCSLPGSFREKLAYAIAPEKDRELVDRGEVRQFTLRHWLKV

Sequence of Substance-P receptor (P25103 whole entry): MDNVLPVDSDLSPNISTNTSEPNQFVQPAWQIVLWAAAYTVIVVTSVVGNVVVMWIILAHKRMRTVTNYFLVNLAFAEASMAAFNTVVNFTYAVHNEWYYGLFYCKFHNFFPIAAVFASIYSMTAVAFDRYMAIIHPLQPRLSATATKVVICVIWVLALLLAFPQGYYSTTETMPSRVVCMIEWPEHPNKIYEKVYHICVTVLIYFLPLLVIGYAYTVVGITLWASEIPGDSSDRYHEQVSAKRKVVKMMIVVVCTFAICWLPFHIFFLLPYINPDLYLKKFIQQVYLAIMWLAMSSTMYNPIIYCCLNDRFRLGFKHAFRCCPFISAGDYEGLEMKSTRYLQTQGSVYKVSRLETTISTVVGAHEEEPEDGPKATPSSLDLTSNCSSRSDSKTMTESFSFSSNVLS

One may read the IC50 as the concentration that gives 50% inhibition. The Ki is a measure of affinity in units of concentration, obtained from inhibition or displacement. As for `CO[C@@H]1[C@@H](O[C@@H]2O[C@H](C)[C@@H](O[C@H]3C[C@@](C)(O)[C@@H](OC(=O)CC(C)C)[C@H](C)O3)[C@H](N(C)C)[C@H]2O)[C@@H](CC=O)C[C@@H](C)[C@@H](O)/C=C/C=C/C[C@@H](C)OC(=O)C[C@H]1O` [KITASAMYCIN], the IC50 entry in assay [1] (hek293), in assay [2], in assay [3], in assay [4], in assay [5] and in assay [6] (cho-k1) was “Not Active” each time. In addition, the Ki result in assay [2] is given as “Not Active”.

Turning to `CC(CCc1ccccc1)NCC(O)c1ccc(O)c(C(N)=O)c1` (stereo unspecified) [LABETALOL], the half-maximal inhibitory concentration (IC50) in assay [1] (read-out: IC50) is 521 nM; in assay [2], “Not Active”; in assay [3], “Not Active”; in assay [4], “Not Active”; in assay [5] it was “Not Active”; in assay [6] (read-out: IC50), 1610 nM. The figures for the Ki in assay [1] (read-out: Ki), in assay [2] and in assay [6] were 256 nM, “Not Active” and 1280 nM, respectively.

Consider `Nc1nnc(-c2cccc(Cl)c2Cl)c(N)n1` [LAMOTRIGINE], for which the IC50 entry in assay [1] (hek293), in assay [2], in assay [3], in assay [4], in assay [5] and in assay [6] (cho-k1) was “Not Active” throughout. Also, in assay [2], the Ki entry is on record as “Not Active”.

`CCC[C@@H]1C[C@@H](C(=O)N[C@@H]([C@H]2O[C@H](SC)[C@H](O)[C@@H](O)[C@H]2O)[C@@H](C)O)N(C)C1` [LINCOMYCIN]: the IC50 result in assay [1] (hek293), in assay [2], in assay [3], in assay [4], in assay [5] and in assay [6] (cho-k1) was “Not Active” each time. In addition, the Ki result in assay [2] is on record as “Not Active”.

In the case of `NCCCC[C@H](N[C@@H](CCc1ccccc1)C(=O)O)C(=O)N1CCC[C@H]1C(=O)O` [LISINOPRIL ANHYDROUS], the IC50 entry in assay [1] (hek293), in assay [2], in assay [3], in assay [4], in assay [5] and in assay [6] (cho-k1) was “Not Active” throughout. Moreover, the Ki entry in assay [2] is recorded as “Not Active”.

For the compound `COS(C)(=O)=O` [METHANESULFONIC ACID METHYL ESTER], the IC50 result in assay [1] (hek293), in assay [2], in assay [3], in assay [4], in assay [5] and in assay [6] (cho-k1) was “Not Active” each time. Also, the Ki entry in assay [2] was “Not Active”.

Consider `COC(=O)c1ccc(O)cc1` [METHYLPARABEN], for which the IC50 entry in assay [1] (hek293), in assay [2], in assay [3], in assay [4], in assay [5] and in assay [6] (cho-k1) was “Not Active” each time. In assay [2], the Ki result is “Not Active”.

Regarding `C[C@](N)(Cc1ccc(O)cc1)C(=O)O` [METYROSINE], the IC50 entry in assay [1] (hek293), in assay [2], in assay [3], in assay [4], in assay [5] and in assay [6] (cho-k1) was “Not Active” each time. For the same compound, the Ki entry in assay [2] is “Not Active”.

Consider `Clc1ccc(C(c2ccccc2Cl)C(Cl)Cl)cc1` (stereo unspecified) [MITOTANE], for which the IC50 result in assay [1] (hek293) is “Not Active”; in assay [2], “Not Active”; in assay [3], “Not Active”; in assay [4], “Not Active”; in assay [5], “Not Active”; in assay [6] (read-out: IC50) it was 1000 nM. Also, the Ki entry is “Not Active” in assay [2] and 795 nM in assay [6].

Source of the values: ChEMBL document CHEMBL1909046, “DrugMatrix in vitro pharmacology data”.
